Measurements taken from patent US20230023935A1, “USE OF MASITINIB FOR THE TREATMENT OF EOSINOPHILIC ASTHMA” (AB SCIENCE, priority 2019, published 2023).

Test system: subjects with severe persistent asthma treated with oral corticosteroids
Test: Phase 3 study AB07015: masitinib 6 mg/kg/day versus placebo, severe asthma exacerbations by baseline blood eosinophil cohort
Assay type: in vivo, human
Details: for Rate ratio (Estimate) for asthma exacerbations: Poisson regression
Method: A prospective, multicenter, randomized, double-blind, placebo-controlled, 2-parallel groups, phase 3 study was carried out to compare the efficacy and the safety of masitinib at 6 mg/kg/day versus placebo in the treatment of subjects with severe persistent asthma treated with oral corticosteroids. Said clinical trial (reference AB07015) is registered under the EudraCT number: 2010-020803-63 and under the ClinicalTrials.gov identifier: NCT01449162. Patients were randomized in two groups with a masitinib to placebo randomization ratio of 2:1, respectively: • Group 1: patients receiving masitinib at 6 mg/kg/day; • Group 2: patients receiving placebo. […] According to the statistical analysis plan of study AB07015 (version 1.0 dated 18 Oct. 2019), the overall assessable population was defined as: ‘all patients in full analysis set (FAS) with severe asthma already treated with oral corticosteroids at a minimal daily dose of greater than 5 mg prednisone or equivalent for at least 3 months prior to screening.’ Subgroup analyses were performed with cohort categorization of severe asthma patients according to eosinophil blood count at baseline. The primary efficacy endpoint was defined as the severe asthma exacerbation rate adjusted on the available person-time (time to end of treatment) on full exposure (main period+extension/weaning period). The rate of severe asthma exacerbations was analyzed by applying a Poisson regression (log-link function and Poisson distribution) model. Because eosinophilic inflammation is correlated with asthma severity, it was of interest to perform subgroup analyses according to blood eosinophil levels. Table 2 below presents the results regarding masitinib treatment effect with respect to placebo (rate ratio for asthma exacerbations requiring steroid therapy) in various blood eosinophil level-defined cohorts, and their complement cohorts (according to the primary efficacy analysis population). The rate of asthma exacerbations is analyzed using Poisson regression with treatment group (masitinib, placebo) as the primary variable (covariate) of interest.

[1] = masitinib 6 mg/kg/day oral, blood eosinophils equal to or higher than 150 cells/μL (M: 181)
[2] = masitinib 6 mg/kg/day oral, blood eosinophils equal to or lower than 300 cells/μL (M: 145)
[3] = masitinib 6 mg/kg/day oral, blood eosinophils higher than 300 cells/μL (M: 95)
[4] = masitinib 6 mg/kg/day oral, blood eosinophils lower than 150 cells/μL (M: 59)
[5] = masitinib 6 mg/kg/day oral, blood eosinophils ranging from 150 to 300 cells/μL (M: 86)
[6] = masitinib vs placebo, blood eosinophils equal to or higher than 150 cells/μL
[7] = masitinib vs placebo, blood eosinophils equal to or lower than 300 cells/μL
[8] = masitinib vs placebo, blood eosinophils higher than 300 cells/μL
[9] = masitinib vs placebo, blood eosinophils lower than 150 cells/μL
[10] = masitinib vs placebo, blood eosinophils ranging from 150 to 300 cells/μL
[11] = masitinib vs placebo, blood eosinophils equal to or higher than 300 cells/μL

Cc1ccc(NC(=O)c2ccc(CN3CCN(C)CC3)cc2)cc1Nc1nc(-c2cccnc2)cs1 [Masitinib, 4-(4-methylpiperazin-1-ylmethyl)-N-[4-methyl-3-(4-pyridin-3ylthiazol-2-ylamino)phenyl]benzamide]
Yearly Exacerbation Rate (masitinib 6 mg/kg/day oral, blood eosinophils equal to or higher than 150 cells/μL): 0.34 severe exacerbations per year | Number of Severe Exacerbations [1]: 67 | n: number of subjects who experienced severe exacerbation [1]: (n = 39) | exacerbation rate (masitinib 6 mg/kg/day oral, blood eosinophils equal to or higher than 300 cells/μL (95 patients)): 0.29 severe exacerbations per year | Yearly Exacerbation Rate (masitinib 6 mg/kg/day oral, blood eosinophils equal to or lower than 300 cells/μL): 0.37 | Number of Severe Exacerbations [2]: 65 | n: number of subjects who experienced severe exacerbation [2]: (n = 35) | Yearly Exacerbation Rate (masitinib 6 mg/kg/day oral, blood eosinophils higher than 300 cells/μL): 0.29 | Number of Severe Exacerbations [3]: 29 | n: number of subjects who experienced severe exacerbation [3]: (n = 19) | Yearly Exacerbation Rate (masitinib 6 mg/kg/day oral, blood eosinophils lower than 150 cells/μL): 0.36 severe exacerbations per year | Number of Severe Exacerbations [4]: 27 | n: number of subjects who experienced severe exacerbation [4]: (n = 15) | Yearly Exacerbation Rate (masitinib 6 mg/kg/day oral, blood eosinophils ranging from 150 to 300 cells/μL): 0.38 severe exacerbations per year | Number of Severe Exacerbations [5]: 38 | n: number of subjects who experienced severe exacerbation [5]: (n = 20) | Rate ratio (Estimate) for asthma exacerbations [6]: 0.66 | Rate ratio (Estimate) for asthma exacerbations [7]: 0.81 | Rate ratio (Estimate) for asthma exacerbations [8]: 0.59 | Rate ratio (Estimate) for asthma exacerbations [9]: 0.97 | Rate ratio (Estimate) for asthma exacerbations [10]: 0.72 | Reduction in Severe Exacerbation [6]: 34% | Reduction in Severe Exacerbation (masitinib vs placebo, blood eosinophils equal to or higher than 150 cells/μL, listed as masitinib): 33% | rate ratio for asthma exacerbations [11]: 0.59 | reduction (improvement) in severe exacerbation [11]: 41% | Reduction in Severe Exacerbation [7]: 19% | Reduction in Severe Exacerbation [8]: 41% | Reduction in Severe Exacerbation [9]: 3% | difference in exacerbation rate versus placebo [9]: no discernable difference | Reduction in Severe Exacerbation (masitinib vs placebo, blood eosinophils lower than 150 cells/μL, listed as masitinib): 3% | Reduction in Severe Exacerbation [10]: 28% | Reduction in Severe Exacerbation (masitinib vs placebo, blood eosinophils ranging from 150 to 300 cells/μL, listed as masitinib): 28%
